Reference: article PMC3961306, “Comparison of the Cancer Gene Targeting and Biochemical Selectivities of All Targeted Kinase Inhibitors Approved for Clinical Use” (PLoS ONE, 2014)
Where two headings read alike, the source gives them in different places.

Test system: forty-four human cancer cell lines
Experiment: Cell proliferation assay (ATPlite, 72 hours) in the 44 cell line Oncolines panel
Assay type: cell-based
Conditions: Homo sapiens
[1] = 769-P, cell line 769-P, read-out: cell panel IC50, 769-P
[2] = 786-0, cell line 786-0, read-out: cell panel IC50, 786-0
[3] = A 172, read-out: cell panel IC50, A-172, cell line A-172
[4] = A204, cell line A-204, read-out: cell panel IC50, A-204
[5] = A498, read-out: cell panel IC50, A-498, cell line A-498
[6] = A549, read-out: cell panel IC50, A-549, cell line A-549
[7] = A-375, cell line A375, read-out: cell panel IC50, A375
[8] = A-427, read-out: cell panel IC50, A-427, cell line A-427
[9] = ACHN, cell line ACHN, read-out: cell panel IC50, ACHN
[10] = AN3-CA, cell line AN3 CA, read-out: cell panel IC50, AN3 CA
[11] = AU565, read-out: cell panel IC50, AU-565, cell line AU-565
[12] = BT-20, cell line BT-20, read-out: cell panel IC50, BT-20
[13] = BT-549, read-out: cell panel IC50, BT-549, cell line BT-549
[14] = BXPC-3, cell line BxPC-3, read-out: cell panel IC50, BxPC-3
[15] = C-33-A, cell line C-33 A, read-out: cell panel IC50, C-33 A
[16] = CAL-27, cell line CAL 27, read-out: cell panel IC50, CAL 27
[17] = CCRF-CEM, cell line CCRF-CEM, read-out: cell panel IC50, CCRF-CEM
[18] = DLD-1, cell line DLD-1, read-out: cell panel IC50, DLD-1
[19] = FaDu, cell line FaDu, read-out: cell panel IC50, FaDu
[20] = HCT-15, cell line HCT-15, read-out: cell panel IC50, HCT-15
[21] = HCT-116, read-out: cell panel IC50, HCT-116, cell line HCT-116
[22] = Hs-578T, cell line Hs 578T, read-out: cell panel IC50, Hs 578T
[23] = Jurkat E6.1, cell line Jurkat E6.1, read-out: cell panel IC50, Jurkat E6.1
[24] = K562, read-out: cell panel IC50, K-562, cell line K-562
[25] = LS174T, read-out: cell panel IC50, LS 174T, cell line LS 174T
[26] = LoVo, cell line LoVo, read-out: cell panel IC50, LoVo
[27] = MG-63, cell line MG-63, read-out: cell panel IC50, MG-63
[28] = MOLT-4, cell line MOLT-4, read-out: cell panel IC50, MOLT-4
[29] = MeWo, cell line MeWo, read-out: cell panel IC50, MeWo
[30] = NCI-H82, cell line NCI-H82, read-out: cell panel IC50, NCI-H82
[31] = NCI-H460, cell line NCI-H460, read-out: cell panel IC50, NCI-H460
[32] = OVCAR-3, cell line OVCAR-3, read-out: cell panel IC50, OVCAR-3
[33] = RPMI-7951, cell line RPMI-7951, read-out: cell panel IC50, RPMI-7951
[34] = SHP77, cell line SHP-77, read-out: cell panel IC50, SHP-77
[35] = SK-N-AS, cell line SK-N-AS, read-out: cell panel IC50, SK-N-AS
[36] = SW48, cell line SW48, read-out: cell panel IC50, SW48
[37] = SW480, cell line SW480, read-out: cell panel IC50, SW480
[38] = SW-620, cell line SW620, read-out: cell panel IC50, SW620
[39] = U2OS, cell line U-2 OS, read-out: cell panel IC50, U-2 OS
[40] = U-87 MG, 72 h, U-87 MG cell line, ATPlite, 72 hours, read-out: IC50 in cell proliferation assay (table S5 cellpanel data)
[41] = cell line J82, read-out: cell panel IC50, J82
[42] = cell line PA-1, read-out: cell panel IC50, PA-1
[43] = cell line SJCRH30, read-out: cell panel IC50, SJCRH30
[44] = cell line SR, read-out: cell panel IC50, SR

## COc1cc([C@@H]2c3cc4c(cc3[C@@H](O[C@@H]3O[C@@H]5CO[C@@H](C)O[C@H]5[C@H](O)[C@H]3O)[C@H]3COC(=O)[C@H]23)OCO4)cc(OC)c1O [etoposide]
[1]
  IC50: 0.815 µM
[2]
  IC50: 3.68 µM
[3]
  IC50: 11.1 µM
[4]
  IC50: 0.653 µM
[5]
  IC50: 1.01 µM
[6]
  IC50: 0.859 µM
[7]
  IC50: 0.397 µM
[8]
  IC50: 0.347 µM
[9]
  IC50: 1.17 µM
[10]
  IC50: 3.18 µM
[11]
  IC50: 0.993 µM
[12]
  IC50: 7.38 µM
[13]
  IC50: 1.18 µM
[14]
  IC50: 10.7 µM
[15]
  IC50: 0.376 µM
[16]
  IC50: 0.525 µM
[17]
  IC50: 0.106 µM
[18]
  IC50: 5.64 µM
[19]
  IC50: 1.35 µM
[20]
  IC50: 1.56 µM
[21]
  IC50: 0.658 µM
[22]
  IC50: 4 µM
[23]
  IC50: 0.24 µM
[24]
  IC50: 1.14 µM
[25]
  IC50: 0.219 µM
[26]
  IC50: 0.739 µM
[27]
  IC50: 2.1 µM
[28]
  IC50: 0.057 µM
[29]
  IC50: 5.24 µM
[30]
  IC50: 1.01 µM
[31]
  IC50: 0.331 µM
[32]
  IC50: 22.4 µM
[33]
  IC50: 0.701 µM
[34]
  IC50: > 31.6 µM
[35]
  IC50: 1.37 µM
[36]
  IC50: 0.205 µM
[37]
  IC50: 4.65 µM
[38]
  IC50: 4.18 µM
[39]
  IC50: 3.33 µM
[40]
  IC50: 29.4 µM
[41]
  IC50: 4.94 µM
[42]
  IC50: 0.083 µM
[43]
  IC50: 1.03 µM
[44]
  IC50: 0.047 µM

## CNC(=O)c1cc(Oc2ccc(NC(=O)Nc3ccc(Cl)c(C(F)(F)F)c3)cc2)ccn1 [sorafenib]
4-4 cell, read-out: cell panel IC50, J82
  IC50: 26.5 µM
4-4 cell, read-out: cell panel IC50, PA-1
  IC50: 11.7 µM
4-4 cell, read-out: cell panel IC50, SJCRH30
  IC50: 12.1 µM
4-4 cell, read-out: cell panel IC50, SR
  IC50: 11.8 µM
769-P, read-out: cell panel IC50, 769-P
  IC50: 12.7 µM
786-0, read-out: cell panel IC50, 786-0
  IC50: 11.7 µM
A 172, read-out: cell panel IC50, A-172
  IC50: 22.6 µM
A204, read-out: cell panel IC50, A-204
  IC50: 1.62 µM
A498, read-out: cell panel IC50, A-498
  IC50: 18.7 µM
A549, read-out: cell panel IC50, A-549
  IC50: 21.2 µM
A-375, read-out: cell panel IC50, A375
  IC50: 28.7 µM
A-427, read-out: cell panel IC50, A-427
  IC50: 7.78 µM
ACHN, read-out: cell panel IC50, ACHN
  IC50: 17.5 µM
AN3-CA, read-out: cell panel IC50, AN3 CA
  IC50: 9.97 µM
AU565, read-out: cell panel IC50, AU-565
  IC50: 10.4 µM
BT-20, read-out: cell panel IC50, BT-20
  IC50: 25.1 µM
BT-549, read-out: cell panel IC50, BT-549
  IC50: 18.2 µM
BXPC-3, read-out: cell panel IC50, BxPC-3
  IC50: 11.1 µM
C-33-A, read-out: cell panel IC50, C-33 A
  IC50: 15.9 µM
CAL-27, read-out: cell panel IC50, CAL 27
  IC50: 14 µM
CCRF-CEM, read-out: cell panel IC50, CCRF-CEM
  IC50: 13 µM
DLD-1, read-out: cell panel IC50, DLD-1
  IC50: 10.5 µM
FaDu, read-out: cell panel IC50, FaDu
  IC50: 16.2 µM
HCT-15, read-out: cell panel IC50, HCT-15
  IC50: 9.9 µM
HCT-116, read-out: cell panel IC50, HCT-116
  IC50: 11.9 µM
Hs-578T, read-out: cell panel IC50, Hs 578T
  IC50: 21.6 µM
Jurkat E6.1, read-out: cell panel IC50, Jurkat E6.1
  IC50: 7.94 µM
K562, read-out: cell panel IC50, K-562
  IC50: 9.46 µM
LS174T, read-out: cell panel IC50, LS 174T
  IC50: 11.7 µM
LoVo, read-out: cell panel IC50, LoVo
  IC50: 11.3 µM
MG-63, read-out: cell panel IC50, MG-63
  IC50: 27.4 µM
MOLT-4, read-out: cell panel IC50, MOLT-4
  IC50: 10.5 µM
MeWo, read-out: cell panel IC50, MeWo
  IC50: 20.9 µM
NCI-H82, read-out: cell panel IC50, NCI-H82
  IC50: 11.3 µM
NCI-H460, read-out: cell panel IC50, NCI-H460
  IC50: 14.1 µM
OVCAR-3, read-out: cell panel IC50, OVCAR-3
  IC50: > 31.6 µM
RPMI-7951, read-out: cell panel IC50, RPMI-7951
  IC50: 20.4 µM
SHP77, read-out: cell panel IC50, SHP-77
  IC50: 13.6 µM
SK-N-AS, read-out: cell panel IC50, SK-N-AS
  IC50: 28.9 µM
SW48, read-out: cell panel IC50, SW48
  IC50: 8.3 µM
SW480, read-out: cell panel IC50, SW480
  IC50: 5.33 µM
SW-620, read-out: cell panel IC50, SW620
  IC50: 5.95 µM
U2OS, read-out: cell panel IC50, U-2 OS
  IC50: 15.8 µM
U-87 MG, 72 h, read-out: IC50 in cell proliferation assay (table S5 cellpanel data)
  IC50: 28.3 µM

## O=c1[nH]cc(F)c(=O)[nH]1 [5-fluorouracil]
[1]
  IC50: 4.74 µM
[2]
  IC50: 2.21 µM
[3]
  IC50: 0.987 µM
[4]
  IC50: 1.42 µM
[5]
  IC50: 1.7 µM
[6]
  IC50: 1.18 µM
[7]
  IC50: 3.66 µM
[8]
  IC50: 1.82 µM
[9]
  IC50: 2.45 µM
[10]
  IC50: 7.34 µM
[11]
  IC50: 1.01 µM
[12]
  IC50: 6.34 µM
[13]
  IC50: 1.85 µM
[14]
  IC50: 5.18 µM
[15]
  IC50: 4.61 µM
[16]
  IC50: 4.07 µM
[17]
  IC50: 15.1 µM
[18]
  IC50: 1.03 µM
[19]
  IC50: 1.13 µM
[20]
  IC50: 1.84 µM
[21]
  IC50: 1.27 µM
[22]
  IC50: 7.95 µM
[23]
  IC50: 3.34 µM
[24]
  IC50: 5.53 µM
[25]
  IC50: 4.8 µM
[26]
  IC50: 3.2 µM
[27]
  IC50: 3.03 µM
[28]
  IC50: 2.07 µM
[29]
  IC50: 4.28 µM
[30]
  IC50: 1.92 µM
[31]
  IC50: 1.59 µM
[32]
  IC50: 3.46 µM
[33]
  IC50: 1.22 µM
[34]
  IC50: 22.8 µM
[35]
  IC50: 2.58 µM
[36]
  IC50: 1.86 µM
[37]
  IC50: 1.73 µM
[38]
  IC50: 4.2 µM
[39]
  IC50: 2.46 µM
[40]
  IC50: 2.46 µM
[41]
  IC50: > 31.6 µM
[42]
  IC50: 0.814 µM
[43]
  IC50: 7.21 µM
[44]
  IC50: 0.546 µM
